The values that follow come from patent US8148360B2, “Supramolecular metallic complexes exhibiting both DNA binding and photocleavage” (Virginia Tech Intellectual Properties, Inc., priority 2006, dated 2012).

Experiment [1] relates to pUC18 circular plasmid DNA. Put plainly: DNA binding by agarose gel electrophoresis (migration shift of plasmid). The settings on record: for DNA binding: 10:1 metal complex:DNA base pair, with and without O2. The source says: (§1) FIG. 6. DNA binding and photocleavage by [{(bpy)2Ru(dpp)}2Ru(dpp)PtCl2](PF6)6 (Ru3Pt) assayed with 0.8% agarose gel electrophoresis post stained with ethidium bromide using circular plasmid pUC18 DNA with comparison to cis-[Pt(NH3)2Cl2] (Cisplatin) and [{(bpy)2Ru(dpp)}2Ru(dpp)](PF6)6 (Ru3) (bpy=2,2′-bipyridine, dpp=2,3-bis(2-pyridyl)pyrazine). Lanes λ are the molecular weight standards (23, 9.4, 6.6, 4.4, 2.3, and 2.0 kb), lanes C are the DNA controls showing mostly form I and minor form II pUC18 DNA. The cisplatin lane 1 is a 5:1 base pair (BP):metal complex (MC) and lane 2 a 20:1 BP:MC incubated for 1 hour at 37° C. The Ru3 lane 1 is a 20:1 BP:MC incubated for 1 hour at 37° C. The Ru3Pt lane 1 is 20:1 BP:MC kept in the dark at room temperature, lane 2 is 20:1 BP:MC incubated for 1 hour in the dark at 37° C., lane 3 is 20:1 BP:MC photolyzed with 450 nm-1000 nm light for 1 hour under atmospheric conditions, lane 4 is 20:1 BP:MC photolyzed with 450 nm-1000 nm light for 1 hour under argon.
(§2) FIG. 9. DNA binding and photocleavage by [{(bpy)2Ru(dpp)}2Ru(dpq)PtCl2](PF6)6. Lane 1 is the molecular weight standard, lane C is the pUC18 DNA plasmid control, lane 25° is 10:1 metal complex:DNA base pair incubated at 25° C., lane 37° is the 10:1 ratio incubated at 37° C., Ar* is the 10:1 ratio photolyzed for 1 hour under Ar, lane O2* is the 10:1 ratio photolyzed under ambient atmosphere.
(§3) FIG. 10. DNA binding and photocleavage by [{(bpy)2Os(dpp)}2Ru(dpq)PtCl2](PF6)6. Lane 1 is the molecular weight standard, lane C is the pUC18 DNA plasmid control, lane 25° is 10:1 metal complex:DNA base pair incubated at 25° C., lane 37° is the 10:1 ratio incubated at 37° C., Ar* is the 10:1 ratio photolyzed for 1 hour under Ar, lane O2* is the 10:1 ratio photolyzed under ambient atmosphere.
(§4) The DNA binding and photocleavage ability of the exemplary complex, [{(bpy)2Ru(dpp)}2Ru(dpp)PtCl2](PF6)6, has been investigated using gel electrophoresis. The cis-dichloroplatinum(II) moiety is designed to allow the complex to bind covalently to DNA. The Ru polyazine units are designed to allow the complex to undergo sensitization of molecular oxygen leading to DNA photocleavage. The presence of the cis-dichloroplatinum(II) sub-unit delivers the Ru polyazine sub-unit to its target prior to optical excitation. DNA interactions of [{(bpy)2Ru(dpp)}2Ru(dpp)PtCl2](PF6)6 were compared to a binding analyses of Ru3 and cisplatin using gel electrophoresis and pUC18 circular plasmid DNA, (2686 BP, Bayou Biolabs) post-stained with ethidium bromide. Lanes λ are the molecular weight standards (23, 9.4, 6.6, 4.4, 2.3, and 2.0 kb). Lanes C are the pUC18 DNA controls, showing primarily the supercoiled (form I) and minor nicked (form II) forms of the circular pUC18 plasmid. The lane 1 for cisplatin is a 5:1 base pairs (BP):metal complex (MC) and lane 2 is a 20:1 BP:MC solution incubated at 37° C. for 1 hr. […] Lane 1 of “Ru3Pt” is the 20:1 DNA BP: MC solution of [{(bpy)2Ru(dpp)}2Ru(dpp)PtCl2](PF6)6 incubated at 37° C. for 1 hr. […] Lane 4 is a 20:1 BP:MC solution photolyzed at λ>450 nm for 1 hour, under argon.
A mixed-metal complex, [{(bpy)2Ru(dpp)}2Ru(dpq)PtCl2](PF6)6, was synthesized using bridging ligands dpq (2,3-bis(2-pyridyl)quinoxaline), and dpp (the ligand described in Example 1). The complex was tested for its ability to bind DNA and to photocleave the DNA in an O2 dependent manner by incubating the complex with DNA in the ambient atmosphere and under argon. […]

Experiment [2] deals with pUC18 circular plasmid DNA. Put plainly: DNA photocleavage by agarose gel electrophoresis (form I to form II conversion) after visible light photolysis. Format: biochemical. The settings on record: for DNA photocleavage: 10:1 ratio; for DNA photocleavage (supercoiled form I to nicked form II): 20:1 BP:MC.
Source text: as §1, §2, §3, §4
A mixed-metal complex, [{(bpy)2Ru(dpp)}2Ru(dpq)PtCl2](PF6)6, was synthesized using bridging ligands dpq (2,3-bis(2-pyridyl)quinoxaline), and dpp (the ligand described in Example 1). The complex was tested for its ability to bind DNA and to photocleave the DNA in an O2 dependent manner by incubating the complex with DNA in the ambient atmosphere and under argon. […] This illustrates the metal complex binds to DNA and photocleaves DNA in a oxygen dependent manner.
A mixed-metal complex, [{(bpy)2Os(dpp)}2Ru(dpq)PtCl2](PF6)6, was synthesized using bridging ligands dpq (2,3-bis(2-pyridyl)quinoxaline), and dpp (as described in Example 3) but using osmium as a light absorbing metal component. […] This illustrates this metal complex also binds to DNA and photocleaves DNA in a oxygen dependent manner.

The mark [3] stands for this setting: photolyzed under ambient atmosphere (O2).

Consider [{(bpy)2Os(dpp)}2Ru(dpq)PtCl2](PF6)6, for which, in experiment [1], the DNA binding result is given as “effective in binding to DNA”. The DNA photocleavage result in experiment [2] (photolyzed for 1 hour under Ar) is on record as “not in the absence of O2”; in experiment [2] (setting [3]) it was “cleaved only when O2 was present”.

Regarding “[{(bpy)2Ru(dpp)}2Ru(dpp)PtCl2](PF6)6 [Ru3Pt]”, the “DNA binding (migration of pUC18 through the gel)” value in experiment [1] (Ru3Pt lane 1, 20:1 BP:MC, b60 prints incubated at 37° C. for 1 hr, FIG. 6 legend prints kept in the dark at room temperature) is reported as “decreased migration of the form I pUC18 through the gel”. Besides, the “DNA photocleavage (supercoiled form I to nicked form II)” value is recorded as “no DNA photocleavage is observed” in experiment [2] (photolyzed λ>450 nm for 1 hour, under argon) and “appreciable conversion of the supercoiled (form 1) to nicked (form II) DNA” in experiment [2] (photolyzed λirr>450 nm for 1 hour, under atmospheric conditions).

For the substance “[{(bpy)2Ru(dpp)}2Ru(dpp)](PF6)6 [Ru3, reference compound]”, the “DNA binding (migration of pUC18 through the gel)” value in experiment [1] (20:1 BP:MC, incubated at 37° C. for 1 hr) is recorded as “migration of the DNA is not impacted”.

In the case of [{(bpy)2Ru(dpp)}2Ru(dpq)PtCl2](PF6)6, in experiment [1], the DNA binding result is “effective in binding to DNA”. Moreover, the DNA photocleavage entry is listed as “not in the absence of O2” in experiment [2] (photolyzed for 1 hour under Ar) and “cleaved only when O2 was present” in experiment [2] (setting [3]).

“cis-[Pt(NH3)2Cl2] [cisplatin, reference compound]”: the “DNA binding (migration of pUC18 through the gel)” value in experiment [1] (5:1 and 20:1 BP:MC, incubated at 37° C. for 1 hr) was “migration of form I of the pUC18 is retarded”.
